The term inhibition denotes the share of the control response that was lost under treatment.

These results are taken from patent US7332489B2, “Methods and compositions of novel triazine compounds” (Reddy US Therapeutics, Inc., priority 2003, dated 2008).

The structures appear in SMILES notation. Where two headings read alike, the source gives them in different places.

The subject of the data set is TNF-α induced IL-6. The experiment in a line: TNF-α-induced IL-6 production determined by IL-6 ELISA. It counts as cell-based. The conditions noted are these: for activity at 10 µM / inhibition at 10 µM: Homo sapiens; for % IL6 production compare to TNF stimulation of IL6 (100%), Compds tested @ 10 uM HAEC, IL6: TNF stimulation = 100%. Here is the method:
Human aortic endothelial cells (HAEC, Clonetics) were cultured according to manufacturer in growth medium (Clonetics): basal medium containing human epidermal growth factor, hydrocortisone, vascular endothelial growth factor, heparin binding growth factor-B, long R3-insulin-like growth factor-1, ascorbic acid, gentamicin/amphotericin and 5% FBS. These cell were allowed to reach at least 90% confluency before subjected to experimental treatments. […] Tumor necrosis factor α was from R&D Systems.
All treatments, compound-added and controls were carried out in serum free media containing 0.2% albumin. Media from all conditions were collected and used for IL-6 ELISA.
IL-6 ELISA was carried out using human IL-6 DuoSet ELISA development kit as described by manufacturer (R&D Systems). Mouse anti-human Il-6 was used as the capture antibody (2 ug/ml) and biotinylated goat anti-human IL-6 (200 ng/ml) was used as the detection antibody. Culture media were incubated with capture antibody (in 96 well) for 2 h at room temperature. Wells were washed three times with wash buffer (0.05% tween-20 in phosphate buffered saline (PBS) pH 7.4) followed by incubation with detection antibody for 2 h at room temperature. Following three washes wells were incubated with Streptavidin-HRP for 20 min. Color development was read at 450 nm in a Microplate reader.

The mark [1] stands for this setting: 24 h, Table 5, first part, class = % of control IL6 production, read-out: Inhibition of TNF-induced IL6 production.
Setting [2] is: 24 h, Table 5, second part, column 1, class = % of control IL6 production, read-out: Inhibition of TNF-induced IL6, production.
[3] abbreviates: 24 h, Table 7, first part, read-out: Inhibition of TNF-induced IL6 production.

For the compound `COc1ccc(Nc2nc(Cl)nc(NC3CCCCCC3)n2)cc1F` [Compound 127, 6-Chloro-N-cycloheheptyl-N′-(3-fluoro-4-methoxy-phenyl)-[1,3,5]triazine-2,4-diamine], the activity at 10 µM under setting [1] lay in the range of 25 to 50%.
`COc1ccc(Nc2nc(NC3CCCCCC3)nc(Oc3ccccc3F)n2)cc1Cl` [drawing 1605]: the “Inflammation Data (result in words)” value (concentration not given) is listed as “Not Active”.
For the compound `CCNc1nc(NCC2CCCN2CC)nc(Nc2ccc(OC)c(F)c2)n1` (stereo not shown) [Compound 51, N^2-ethyl-N^4-[(1-ethyl-2-pyrrolidinyl)methyl]-N^6-(3-fluoro-4-methoxyphenyl)-1,3,5-triazine-2,4,6-triamine], the activity at 10 µM under setting [1] was in the range of 0 to 25%.
As for `CCN1CCCC1CNc1nc(Nc2ccc(N3CCOCC3)cc2)nc(NC2CCCCCC2)n1` (stereo not shown) [Compound 27, N^2-cycloheptyl-N^4-[(1-ethyl-2-pyrrolidinyl)methyl]-N^6-[4-(4-morpholinyl)phenyl]-1,3,5-triazine-2,4,6-triamine], the activity at 10 µM reads like this: under setting [1], 0 to 25%; under setting [2], 0 to 25%.
Consider `CCN1CCCC1CNc1nc(Nc2ccc(OC)c(F)c2)nc(N2CCN(Cc3ccc4c(c3)OCO4)CC2)n1` (stereo not shown) [Compound 72, N^6-[4-(1,3-benzodioxol-5-ylmethyl)-1-piperazinyl]-N^2-[(1-ethyl-2-pyrrolidinyl)methyl]-N^4-(3-fluoro-4-methoxyphenyl)-1,3,5-triazine-2,4-diamine], for which the activity at 10 µM under setting [1] lay within 0 to 25% and the activity at 10 µM under setting [2] is 25 to 50%.
As to `c1ccc(Nc2nc(NC3CCCCCC3)nc(N3CCOCC3)n2)cc1` [Compound 176, N-Cycloheptyl-6-morpholin-4-yl-N′-phenyl-[1,3,5]tri-azine-2,4-diamine], the inhibition at 10 µM under setting [3] fell in the range of 85 to 100%.
As to `COc1ccc(Nc2nc(NC3CC3)nc(NC3CC3)n2)cc1F` [Compound 157, N,N′-dicyclopropyl-N″-(3-fluoro-4-methoxy-phenyl)-1,3,5-triazine-2,4,6-triamine], the “% IL6 production compare to TNF stimulation of IL6 (100%), Compds tested @ 10 uM HAEC, IL6” value (HAEC, 10 uM compound) turned out to be 60.48%. Besides, the activity at 10 µM under setting [1] was in the range of 50 to 75%.
For `CCN1CCCC1CNc1nc(NC2CCCCCC2)nc(N(C)c2ccc(OC)cc2)n1` (stereo not shown) [Compound 42, N^2-cycloheptyl-N^4-[(1-ethyl-2-pyrrolidinyl)methyl]-N^6-(4-methoxyphenyl)-N^6-methyl-1,3,5-triazine-2,4,6-triamine], the activity at 10 µM runs as follows: under setting [1], 0 to 25%; under setting [2], 0 to 25%.
In the case of `CCN1CCCC1CNc1nc(Nc2ccc(OC)c(F)c2)nc(N2CCN(C)CC2)n1` (stereo not shown) [Compound 62, N^2-[(1-ethyl-2-pyrrolidinyl)methyl]-N^4-(3-fluoro-4-methoxyphenyl)-6-(4-methyl-1-piperazinyl)-1,3,5-triazine-2,4-diamine], the activity at 10 µM under setting [2] fell in the range of 25 to 50%.
Consider `CCN1CCCC1CNc1nc(NCC2CCCN2CC)nc(Nc2ccc(OC)c(F)c2)n1` (stereo not shown) [Compound 70, N^2,N^4-bis[(1-ethyl-2-pyrrolidinyl)methyl]-N^6-(3-fluoro-4-methoxyphenyl)-1,3,5-triazine-2,4,6-triamine], for which the activity at 10 µM reads like this: under setting [1], 0 to 25%; under setting [2], 25 to 50%.
Regarding `COc1ccc(Nc2nc(NC3CCCCCC3)nc(N(C)Cc3ccccc3)n2)cc1` [Compound 178, N-Benzyl-N′-cycloheptyl-N″-(4-methoxy-phenyl)-N-methyl-[1,3,5]triazine-2,4,6-tri-amine], under setting [3], the inhibition at 10 µM is 65 to 85%.
Consider `CCN1CCCC1CNc1nc(NC2CCCCCC2)nc(N(C)c2cccc(Cl)c2)n1` (stereo not shown) [Compound 45, N^2-(3-chlorophenyl)-N^4-cycloheptyl-N^6-[(1-ethyl-2-pyrrolidinyl)methyl]-N^2-methyl-1,3,5-triazine-2,4,6-triamine], for which the activity at 10 µM under setting [2] lay in the range of 0 to 25%.
Consider `COC[C@@H]1CCCN1c1nc(Nc2ccc(OC)c(F)c2)nc(NC2CCCCCC2)n1` [Compound 86, N^2-cycloheptyl-N^4-(3-fluoro-4-methoxyphenyl)-6-[(2S)-2-(methoxymethyl)-1-pyrrolidinyl]-1,3,5-triazine-2,4-diamine], for which the activity at 10 µM under setting [1] fell in the range of 0 to 25%.
For `COc1ccc(Nc2nc(N3CCOCC3)nc(N3CCN(Cc4ccccc4)CC3)n2)cc1` [Compound 173, [4-(4-Benzyl-piperazin-1-yl)-6-morpholin-4-yl-[1,3,5]tri-azin-2-yl]-(4-methoxy-phenyl)-amine], under setting [3], the inhibition at 10 µM was in the range of 65 to 85%.
On to `COc1ccc(Nc2nc(NCCCCCO)nc(N(C)C3CCN(C)CC3)n2)cc1Cl` [Compound 108, 5-{4-(3-Chloro-4-methoxy-phenylamino)-6-[methyl-(1-methyl-piperidin-4-yl)-amino]-[1,3,5]triazin-2-ylamino}-pentan-1-ol], for which the activity at 10 µM (24 h, read-out: % IL6 production compare to TNF stimulation of IL6 (100%), Compds tested @ 10 uM HAEC, IL6) worked out at 25% and the activity at 10 µM (24 h, read-out: Inhibition of TNF-induced IL6 production) was in the range of 25 to 50%.
In the case of `CCN1CCCC1CNc1nc(Nc2ccccn2)nc(NC2CCCCCC2)n1` (stereo not shown) [Compound 34, N^2-cycloheptyl-N^4-[(1-ethyl-2-pyrrolidinyl)methyl]-N^6-(2-pyridinyl)-1,3,5-triazine-2,4,6-triamine], the activity at 10 µM runs as follows: under setting [1], 0 to 25%; under setting [2], 0 to 25%.
For the compound `COc1ccc(Nc2nc(NCCCn3ccnc3)nc(NC3CCCCCC3)n2)cc1F` [Compound 100, N^2-cycloheptyl-N^4-(3-fluoro-4-methoxyphenyl)-N^6-[3-(1H-imidazol-1-yl)propyl]-1,3,5-triazine-2,4,6-triamine], under setting [2], the activity at 10 µM lay in the range of 0 to 25%.
`CCN(CC)c1ccc(Nc2nc(NCC3CCCN3CC)nc(NC3CCCCCC3)n2)cc1Cl` (stereo not shown) [Compound 26, N^2-[3-chloro-4-(diethylamino)phenyl]-N^4-cycloheptyl-N^6-[(1-ethyl-2-pyrrolidinyl)methyl]-1,3,5-triazine-2,4,6-triamine] came in with a cells floating (HAEC, 10 uM compound, seen in the TNF IL6 test) above 50%. For the same compound, the activity at 10 µM under setting [1] lay within 0 to 25%.
On to `COc1ccc(Nc2nc(NC3CCCCCC3)nc(N3CCCC3)n2)cc1F` [Compound 82, N^2-cycloheptyl-N^4-(3-fluoro-4-methoxyphenyl)-6-(1-pyrrolidinyl)-1,3,5-triazine-2,4-diamine], for which the activity at 10 µM under setting [1] fell in the range of 25 to 50%.
As to `CCN1CCCC1CNc1nc(Nc2ccc(OC)c(F)c2)nc(N2CCN(C(C)=O)CC2)n1` (stereo not shown) [Compound 63, 6-(4-acetyl-1-piperazinyl)-N^2-[(1-ethyl-2-pyrrolidinyl)methyl]-N^4-(3-fluoro-4-methoxyphenyl)-1,3,5-triazine-2,4-diamine], the activity at 10 µM under setting [1] was in the range of 25 to 50%.
On to `CCN1CCCC1CNc1nc(NCc2ccccc2)nc(Nc2ccc(OC)c(F)c2)n1` (stereo not shown) [Compound 53, N^2-benzyl-N^4-[(1-ethyl-2-pyrrolidinyl)methyl]-N^6-(3-fluoro-4-methoxyphenyl)-1,3,5-triazine-2,4,6-triamine], for which the activity at 10 µM reads like this: under setting [1], 0 to 25%; under setting [2], 25 to 50%.
On to `CCN1CCC[C@H]1CNc1nc(NC2CCCCCC2)nc(N(CC#N)c2ccccc2)n1` [Compound 143, ({4-cycloheptylamino-6-[((S)-1-ethyl-pyrrolidin-2-ylmethyl)-amino]-1,3,5-triazin-2-yl}-phenyl-amino)-acetonitrile], for which, under “HAEC, 10 uM compound”, the “% IL6 production compare to TNF stimulation of IL6 (100%), Compds tested @ 10 uM HAEC, IL6” value came out at 18.88%. For the same compound, under setting [1], the activity at 10 µM lay in the range of 0 to 25%.
Turning to `CN1CCC(N(C)c2nc(NCCC3OCCO3)nc(Nc3ccc4ccccc4c3)n2)CC1` [Compound 179, N-(2-[1,3]Dioxolan-2-yl-ethyl)-N′-methyl-N′-(1-meth-yl-piperidin-4-yl)-N″-naphthalen-2-yl-[1,3,5]tri-azine-2,4,6-triamine], the inhibition at 10 µM runs as follows: (24 h, read-out: Inhibition of TNF-induced IL6 production, Table 7, first part) 65 to 85%; (24 h, read-out: Inhibition of TNF-induced IL6 production, Table 7, second part, column 1) 50 to 65%.
On to `CCN1CCCC1CNc1nc(NCCCN2CCCC2=O)nc(Nc2ccc(OC)c(F)c2)n1` (stereo not shown) [Compound 74, 1-[3-({4-{[(1-ethyl-2-pyrrolidinyl)methyl]amino}-6-[(3-fluoro-4-methoxyphenyl)amino]-1,3,5-triazin-2-yl}amino)propyl]-2-pyrrolidinone], for which the activity at 10 µM under setting [2] lay within 25 to 50%.
Consider `CCOc1ccc(Nc2nc(NCC3CCCN3CC)nc(NC3CCCCCC3)n2)cc1` (stereo not shown) [Compound 32, N^2-cycloheptyl-N^4-(4-ethoxyphenyl)-N^6-[(1-ethyl-2-pyrrolidinyl)methyl]-1,3,5-triazine-2,4,6-triamine], for which the activity at 10 µM under setting [2] lay within 0 to 25%.
The same measure, in the same setting: to `CCN1CCCC1CNc1nc(Nc2ccc3ncccc3c2)nc(NC2CCCCCC2)n1` (stereo not shown) [Compound 4, N^2-cycloheptyl-N^4-[(1-ethyl-2-pyrrolidinyl)methyl]-N^6-(6-quinolinyl)-1,3,5-triazine-2,4,6-triamine] belongs 0 to 25%; to `CCN1CCCC1CNc1nc(NCC(F)(F)F)nc(Nc2ccc(OC)c(F)c2)n1` (stereo not shown) [Compound 67, N^2-[(1-ethyl-2-pyrrolidinyl)methyl]-N^4-(3-fluoro-4-methoxyphenyl)-N^6-(2,2,2-trifluoroethyl)-1,3,5-triazine-2,4,6-triamine], 25 to 50%.
`COc1ccc(Nc2nc(NC3CCCCCC3)nc(OC3CCCNC3)n2)cc1Cl` (stereo not shown): the “Inflammation Data, cell death at 10 uM” value (10 uM) amounted to 20%. Besides, the inhibition at 10 µM (10 uM, read-out: Inflammation Data, inhibition at 10 uM) amounted to 60%.
